Assay [1] addresses T1, Leukotriene B4 receptor 1 (Homo sapiens, UniProt Q15722). The assay can be described thus: (§1) Inhibitory concentration against LTB4 receptor determined in human neutrophils PMN assay.
The target in assay [2] is Leukotriene B4 receptor 1 (Mus musculus) (UniProt O88855). As to the kind of experiment: Inhibitory concentration against LTB4 receptor determined in mast cell line MC-9 assay.
For assay [3], the target named is T1, Leukotriene B4 receptor 1. The assay can be described thus: ChEBML_99664.
From the text: as §1

Molecules are shown by their SMILES.

T1 sequence (Q15722 whole entry): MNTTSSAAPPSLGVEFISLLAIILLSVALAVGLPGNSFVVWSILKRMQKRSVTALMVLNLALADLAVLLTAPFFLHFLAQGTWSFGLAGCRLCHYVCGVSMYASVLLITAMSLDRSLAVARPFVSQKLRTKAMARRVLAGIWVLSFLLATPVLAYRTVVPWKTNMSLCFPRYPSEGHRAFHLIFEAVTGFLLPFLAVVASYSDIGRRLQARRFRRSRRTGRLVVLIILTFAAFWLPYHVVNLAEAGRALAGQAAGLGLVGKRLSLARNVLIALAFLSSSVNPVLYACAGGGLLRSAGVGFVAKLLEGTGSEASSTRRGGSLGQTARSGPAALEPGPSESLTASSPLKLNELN
Chain of Leukotriene B4 receptor 1 (Mus musculus) (O88855 whole entry, looked up): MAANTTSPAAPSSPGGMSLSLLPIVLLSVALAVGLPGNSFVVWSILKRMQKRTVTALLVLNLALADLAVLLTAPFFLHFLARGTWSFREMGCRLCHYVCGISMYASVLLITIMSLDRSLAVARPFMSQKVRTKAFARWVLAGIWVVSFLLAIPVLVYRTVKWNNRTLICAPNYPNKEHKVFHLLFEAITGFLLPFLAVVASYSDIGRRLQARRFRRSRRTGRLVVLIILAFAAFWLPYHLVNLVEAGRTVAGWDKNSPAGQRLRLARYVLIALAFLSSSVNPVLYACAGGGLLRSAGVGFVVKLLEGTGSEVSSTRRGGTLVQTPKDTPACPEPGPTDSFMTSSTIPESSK

Broadly, the IC50 is the point on the concentration scale where inhibition reaches its midpoint. Compound `COc1cc(C(=O)O)ccc1Cc1cn(C(c2ccccc2)c2ccccc2)c2ccc(C)cc12` [4-(1-Benzhydryl-5-methyl-1H-indol-3-ylmethyl)-3-methoxy-benzoic acid] returned a concentration for half-maximal inhibition (IC50) in assay [1] of 400 nM.
For `COc1cc(C(=O)O)ccc1Cc1cn(C(c2ccccc2)c2ccccc2)c2ccc([N+](=O)[O-])cc12` [4-(1-Benzhydryl-5-nitro-1H-indol-3-ylmethyl)-3-methoxy-benzoic acid], the IC50 is 2800 nM in assay [2] and 500 nM in assay [1].
As for `COc1cc(C(=O)O)ccc1Cc1cn(C(c2ccccc2)c2ccccc2)c2ccc(Br)cc12` [4-(1-Benzhydryl-5-bromo-1H-indol-3-ylmethyl)-3-methoxy-benzoic acid], the figures for the IC50 in assay [2] and in assay [3] were 1100 nM and 400 nM, respectively.

The record behind these values is BindingDB's records for doi:10.1016/j.bmcl.2003.08.070 (Wyeth Research, 2003).
